In patent publication EP4775582A1, “MACROCYCLIC COMPOUND AND ANTIBODY-DRUG CONJUGATE THEREOF” (Genfleet Therapeutics (Shanghai) Inc., priority 2023, dated 2025):
pIC50: −log10 of the molar value. Read-outs that look alike come from different tables or passages of the source.

Key:
Assay type in all cases: cell-based, human
[1] = system: AsPC-1 cells; assay: 3D cell proliferation assay (CellTiter Glo-3D), AsPC-1; settings: for IC50: Homo sapiens, ASPC1, 120 h, read-out: AsPC-1 AP IC50(nM)
Procedure: (§1) The cells were digested with trypsin (containing EDTA), collected in their respective low-serum complete media containing 2% FBS (for MIA Paca-2 cell culture: DMEM + 2% FBS + 0.5% Horse serum + 1% PS), and counted. After the cell density was adjusted as required, 200 MIA PaCa-2 cells, 800 AsPC-1 cells, 800 NCI-H441 cells, or 400 NCI-H1975 cells per well were seeded into a 384-well cell culture plate, with the volume of the medium in each well being 45 µL. The cell culture plate was incubated in an incubator at 37 °C with 5% CO2 overnight. […] On the day after cell seeding, 5 µL of the 10× compound stock solution was added to each cell culture well. […] In addition to the compound-treated wells described above, cell-containing DMSO control wells (with 5 µL of the complete medium containing 1% DMSO added to each well) and cell-free medium control wells (containing 50 µL of the complete medium with 2% FBS) were also set. The culture plate was incubated in an incubator at 37 °C with 5% CO2 for another 5 days, and then 30 µL of CellTiter-Glo working solution was added to each well. The mixture was well mixed, incubated for 30 min, left to stand at room temperature for 30 min, and then transferred to a white-bottomed, opaque 384-well assay plate at 40 µL/well. […] Using an XLfit software, the IR (%) values were plotted against the logarithm of the compound concentrations, and the dose-response curves were fitted using the four-parameter method to calculate the IC50 values.

[2] = system: H441 p-ERK; assay: Cell p-ERK assay (HTRF), NCI-H441 cells; settings: NCI-H441 cells (KRAS G12V), 3 h incubation
Procedure: (§2) The cells were digested with trypsin (containing EDTA), collected in their corresponding complete media, and counted. The density of the cell suspensions was adjusted with their corresponding complete media, and 10000 AsPC-1 cells or 20000 NCI-H441 cells per well were seeded into a 96-well cell culture plate, with the volume of the medium in each well being 80 µL. The cell culture plate was incubated in an incubator at 37 °C with 5% CO2 overnight. […] On the day after cell seeding, 20 µL of the 5× compound stock solution was added to each cell culture well. […] In addition to the compound-treated wells described above, cell-containing DMSO control wells were also set. A complete medium containing 0.5% DMSO was added at 20 µL/well. After the mixture was well mixed, the culture plate was incubated in the incubator at 37 °C with 5% CO2 for another 3 h. The medium was then removed from the culture wells, and 50 µL of cell lysis buffer (from Advance ERK phospho-T202/Y204 kit) was added to each well. The mixture was well mixed and incubated for 30 min. Then, 16 µL of the mixture was transferred to a white-bottomed, opaque 96-well assay plate, and separately, 16 µL of cell lysis buffer was added to additional wells (serving as blank wells) in the assay plate. After the transfer was completed, 4 µL of p-ERK HTRF antibody mixture (from Advance ERK phospho-T202/Y204 kit) was added to each well of the assay plate, followed by a 4-hour incubation. […] Using an XLfit software, the IR (%) values were plotted against the logarithm of the compound concentrations, and the dose-response curves were fitted using the four-parameter method to calculate the IC50 values.

[3] = system: AsPC-1 p-ERK; assay: Cell p-ERK assay (HTRF), AsPC-1 cells; settings: for IC50: Homo sapiens, ASPC1, 3 h, read-out: AsPC-1 p-ERK IC50(nM)
Procedure: as §2

[4] = system: NCI-H441 cells; assay: 3D cell proliferation assay (CellTiter Glo-3D), NCI-H441; settings: NCI-H441 cells (KRAS G12V), 2% FBS, 5 days, read-out: H441 AP IC50
Procedure: as §1

Molecule	IC50 [1]	pIC50 ([2]; Homo sapiens)	IC50 [3]	pIC50 ([4]; Homo sapiens, 120 h)	pIC50 ([1]; AsPC-1 cells (KRAS G12D), 3D, 2% FBS, 5 days, read-out: AsPC-1 AP IC50)	pIC50 [2]	pIC50 ([3]; AsPC-1 cells (KRAS G12D), 3 h incubation, read-out: AsPC-1 p-ERK IC50)	pIC50 [4]
CCn1c(-c2cc(C#CCN3CCCN(C(=O)CO)CC3)cnc2[C@H](C)OC)c2c3cc(ccc31)-c1csc(n1)C[C@H](NC(=O)[C@H]1[C@H](C)[C@@H]1C)C(=O)N1CCC[C@H](N1)C(=O)OCC(C)(C)C2 (atropisomer, axis not shown; (Ra)) [Compound Z10, (1r,2R,3S)-N-((6^3S,4S,Z)-1^1-ethyl-(Ra)-1^2-(5-(3-(4-(2-hydroxyacetyl)-1,4-diazepin-1-yl)prop-1-yn-1-yl)-2-((S)-1-methoxyethyl)pyridin-3-yl)-10,10-dimethyl-5,7-dioxo-6^1,6^2,6^3,6^4,6^5,6^6-hexahydro-1^1H-8-oxa-2(4,2)-thiazola-1(5,3)-indola-6(1,3)-pyridazinacycloundecaphane-4-yl)-2,3-dimethylcyclopropane-1-carboxamide]	0.16 nM	9.74	0.12 nM	9.89	–	–	–	–
CCn1c(-c2cc(C#CCN3CCN(C(=O)CNC)CC3)cnc2[C@H](C)OC)c2c3cc(ccc31)-c1csc(n1)C[C@H](NC(=O)[C@H]1[C@@H]3COC[C@@H]31)C(=O)N1CCC[C@H](N1)C(=O)OCC(C)(C)C2 (atropisomer, axis not shown; (Ra)) [Compound Z164]	2.59 nM	8.82	2.08 nM	8.69	–	–	–	–
CCn1c(-c2cc(C#CCN3CCS(=O)(=O)CC3)cnc2[C@H](C)OC)c2c3cc(ccc31)-c1csc(n1)C[C@H](Nc1n[nH]c3cc(C)ccc13)C(=O)N1CCC[C@H](N1)C(=O)OCC(C)(C)C2 (atropisomer, axis not shown; (Ra)) [Compound Z171, (6^3S,4S,Z)-(Ra)-1^2-(5-(3-(1,1-dioxidothiomorpholino)prop-1-yn-1-yl)-2-((S)-1-methoxyethyl)pyridin-3-yl)-1^1-ethyl-10,10-dimethyl-4-((6-methyl-1H-indazol-3-yl)amino)-6^1,6^2,6^3,6^4,6^5,6^6-hexahydro-1^1H-8-oxa-2(4,2)-thiazola-1(5,3)-indola-6(1,3)-pyridazinacycloundecaphane-5,7-dione]	1.36 nM	9.28	0.97 nM	8.56	–	–	–	–
CCn1c(-c2cc(C#CCN3CCS(=O)(=O)CC3)cnc2[C@H](C)OC)c2c3cc(ccc31)-c1csc(n1)C[C@H](NC(=O)[C@@H](NC)C1CCC1)C(=O)N1CCC[C@H](N1)C(=O)OCC(C)(C)C2 (atropisomer, axis not shown; (Ra)) [Compound Z17, (2S)-2-methylamino-2-cyclobutyl-N-((6^3S,4S,Z)-(Ra)-1^2-(5-(3-(1,1-dioxidothiomorpholino)prop-1-yn-1-yl)-2-((S)-1-methoxyethyl)pyridin-3-yl)-1^1-ethyl-10,10-dimethyl-5,7-dioxo-6^1,6^2,6^3,6^4,6^5,6^6-hexahydro-1^1H-8-oxa-2(4,2)-thiazola-1(5,3)-indola-6(1,3)-pyridazinacycloundecaphane-4-yl)acetamide]	0.46 nM	9.66	0.26 nM	9.46	–	–	–	–
(6^3S,4S,Z)-(Sa)-1^2-(5-(3-(1,4-oxazepan-4-yl)prop-1-yn-1-yl)-2-((S)-1-methoxyethyl)pyridin-3-yl)-1^1-ethyl-10,10-dimethyl-4-((5-ethyl-5-methyl-4,5-dihydroisoxazol-3-yl)amino)-6^1,6^2,6^3,6^4,6^5,6^6-hexahydro-1^1H-8-oxa-2(4,2)-thiazola-1(5,3)-indola-6(1,3)-pyridazinacycloundecaphane-5,7-dione [Compound Z173-2]	–	–	–	–	8.79	9.09	9.07	8.74
CO[C@@H](C)c1ncc(C#CCN2CCN(C(=O)CN)CC2)cc1-c1c2c3cc(ccc3n1C(C)C)-c1csc(n1)C[C@H](NC(=O)[C@H]1[C@@H]3COC[C@@H]31)C(=O)N1CCC[C@H](N1)C(=O)OCC(C)(C)C2 (atropisomer, axis not shown; (Ra)) [Compound Z84, (1R,5S,6r)-N-((6^3S,4S,Z)-(Ra)-1^2-(5-(3-(4-glycylpiperazin-1-yl)prop-1-yn-1-yl)-2-((S)-1-methoxyethyl)pyridin-3-yl)-1^1-isopropyl-10,10-dimethyl-5,7-dioxo-6^1,6^2,6^3,6^4,6^5,6^6-hexahydro-1^1H-8-oxa-2(4,2)-thiazola-1(5,3)-indola-6(1,3)-pyridazinacycloundecaphane-4-yl)-3-oxabicyclo[3.1.0]hexane-6-carboxamide]	2.7 nM	8.83	1.56 nM	8.52	–	–	–	–
CCn1c(-c2cc(C#CCN3CCCN(C(=O)CO)CC3)cnc2[C@H](C)OC)c2c3cc(ccc31)-c1csc(n1)C[C@H](NC(=O)[C@H]1[C@@H]3COC[C@@H]31)C(=O)N1CCC[C@H](N1)C(=O)OCC(C)(C)C2 (atropisomer, axis not shown; (Ra)) [Compound Z19]	0.41 nM	9.89	0.24 nM	9.36	–	–	–	–
CCn1c(-c2cc(C#CCN3CCC(C#N)(CO)CC3)cnc2[C@H](C)OC)c2c3cc(ccc31)-c1csc(n1)C[C@H](NC(=O)[C@H]1[C@H](C)[C@@H]1C)C(=O)N1CCC[C@H](N1)C(=O)OCC(C)(C)C2 (atropisomer, axis not shown; (Ra)) [Compound Z23, (1r,2R,3S)-N-((6^3S,4S,Z)-(Ra)-1^2-(5-(3-(4-cyano-4-(hydroxymethyl)piperidin-1-yl)prop-1-yn-1-yl)-2-((S)-1-methoxyethyl)pyridin-3-yl)-1^1-ethyl-10,10-dimethyl-5,7-dioxo-6^1,6^2,6^3,6^4,6^5,6^6-hexahydro-1^1H-8-oxa-2(4,2)-thiazola-1(5,3)-indola-6(1,3)-pyridazinacycloundecaphane-4-yl)-2,3-dimethylcyclopropane-1-carboxamide]	0.03 nM	10.00	0.08 nM	10.22	–	–	–	–
COCCn1c(-c2cc(C#CCN3CCC(C#N)(CO)CC3)cnc2[C@H](C)OC)c2c3cc(ccc31)-c1csc(n1)C[C@H](NC(=O)[C@H]1[C@@H]3COC[C@@H]31)C(=O)N1CCC[C@H](N1)C(=O)OCC(C)(C)C2 (atropisomer, axis not shown) [Compound Z28, (1R,5S,6r)-N-((6^3S,4S,Z)-1^2-(5-(3-(4-cyano-4-hydroxymethylpiperidin-1-yl)prop-1-yn-1-yl)-2-((S)-1-methoxyethyl)pyridin-3-yl)-1^1-(methoxyethyl)-10,10-dimethyl-5,7-dioxo-6^1,6^2,6^3,6^4,6^5,6^6-hexahydro-1^1H-8-oxa-2(4,2)-thiazola-1(5,3)-indola-6(1,3)-pyridazinacycloundecaphane-4-yl)-3-oxabicyclo[3.1.0]hexane-6-carboxamide]	0.37 nM	9.32	0.42 nM	9.40	–	–	–	–
CCn1c(-c2cc(C#CCN3CCN(C)CC3)cnc2[C@H](C)OC)c2c3cc(ccc31)-c1csc(n1)C[C@H](NC(=O)[C@H]1[C@@H]3COC[C@@H]31)C(=O)N1CCC[C@H](N1)C(=O)OCC(C)(C)C2 (atropisomer, axis not shown; (Ra)) [Compound Z83, (1R,5S,6r)-N-((6^3S,4S,Z)-1^1-ethyl-(Ra)-1^2-(2-((S)-1-methoxyethyl)-5-(3-(4-methylpiperazin-1-yl)prop-1-yn-1-yl)pyridin-3-yl)-10,10-dimethyl-5,7-dioxo-6^1,6^2,6^3,6^4,6^5,6^6-hexahydro-1^1H-8-oxa-2(4,2)-thiazola-1(5,3)-indola-6(1,3)-pyridazinacycloundecaphane-4-yl)-3-oxabicyclo[3.1.0]hexane-6-carboxamide]	0.12 nM	9.38	0.64 nM	10.05	–	–	–	–
